Test results: patent US20190390161A1, “CULTURE MEDIUM COMPRISING OLIGOPEPTIDES” (Evonik Degussa GmbH, priority 2017, published 2019)
Peptide text beside a SMILES is read from it.

Legend:
plasmin = plasmin (Homo sapiens, UniProt P00747); conditions: Chemical & Pharmaceutical Bulletin 22, 2680 (1974); cited from earlier work
[1] = Solubility found for Lys-Xxx dipeptides; conditions: as hydrochloride or as acetate (footnotes 6, 7)
[2] = tested on: antibody producing Chinese Hamster Ovary (CHO) cells (Subclone DG44); experiment: Experiment 1: cell growth (VCD) in TC-42 media, cysteine/cystine or leucine replaced by dipeptides; type: cell-based; design: Viable cell densities (VCD) / maximum cell densities (max. VCD): unit not given here; conditions: TC-42 media of table 2
Source text: The influence of the L-lysine dipeptides on the growth of antibody producing Chinese Hamster Ovary (CHO) cells (Subclone DG44; Life Technologies Cooperation, Carslbad, USA) in comparison to media containing either the corresponding free amino acids or the corresponding L-alanine dipeptides was investigated. For this purpose, the cells were cultivated in a TC-42 media produced by Xell AG, Bielefeld, Germany in which the amino acids provided within the experiments by dipeptides were lacking. The concentrations of these amino acids were adjusted in such a way that, taking into account a complete hydrolysis of the dipeptides into the amino acids, the concentration of all amino acids were the same in all media tested within this experiment. […] Experiment 1: Comparison of the Cell Growths Obtained with TC-42 media in which L-cysteine/L-cystine is replaced by bis-L-alanyl-L-cystine, bis-L-prolyl-L-cystine or bis-L-lysyl-L-cystine and L-leucine is replaced by […] For this experiment a TC-42 media produced by Xell AG, Bielefeld, Germany in which […]-cystine and L-leucine were deliberately left out of the initial formulation. […] [table]

Sequence of plasmin (P00747 581-810 limits assumed, species assumed): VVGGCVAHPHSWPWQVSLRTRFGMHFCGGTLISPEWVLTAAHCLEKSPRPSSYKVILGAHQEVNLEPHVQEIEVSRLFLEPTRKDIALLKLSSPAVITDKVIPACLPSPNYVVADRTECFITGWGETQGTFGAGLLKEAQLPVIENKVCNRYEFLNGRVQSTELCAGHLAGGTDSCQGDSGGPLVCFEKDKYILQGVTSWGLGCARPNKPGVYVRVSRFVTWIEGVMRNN
Sequence of plasmin (P00747 97-580 partner limits assumed, species assumed): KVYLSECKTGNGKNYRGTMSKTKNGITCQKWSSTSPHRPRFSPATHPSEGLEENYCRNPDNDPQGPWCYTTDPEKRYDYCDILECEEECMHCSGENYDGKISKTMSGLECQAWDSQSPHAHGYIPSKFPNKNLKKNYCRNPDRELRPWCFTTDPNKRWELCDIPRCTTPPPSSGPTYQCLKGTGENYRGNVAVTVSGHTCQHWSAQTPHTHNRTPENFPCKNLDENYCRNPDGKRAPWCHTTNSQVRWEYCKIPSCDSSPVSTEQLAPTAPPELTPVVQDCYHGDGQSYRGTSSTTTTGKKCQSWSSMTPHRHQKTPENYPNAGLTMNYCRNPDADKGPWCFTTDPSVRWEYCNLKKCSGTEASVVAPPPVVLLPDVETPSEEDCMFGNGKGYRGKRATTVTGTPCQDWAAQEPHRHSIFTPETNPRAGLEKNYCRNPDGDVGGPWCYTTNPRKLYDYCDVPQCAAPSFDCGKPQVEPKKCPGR

CC(=O)O.CC(C)C[C@H](NC(=O)[C@@H](N)CCCCN)C(=O)O [Lys-Leu, L-Lysyl-L-leucine acetat] (H-Lys-Leu-OH)
cleavage (hydrolysis) by plasmin (plasmin): none of these peptides were cleaved | Solubility Lys-Xxx found [1]: >330 ^7) g/1000 g solution | maximum cell densities (max. VCD) [2]: 12.43 | Viable cell densities (VCD) ([2]; Time 0.0): 0.33 | Viable cell densities (VCD) ([2]; Time 0.7): 0.39 | Viable cell densities (VCD) ([2]; Time 2.0): 0.59 | Viable cell densities (VCD) ([2]; Time 2.7): 0.81 | Viable cell densities (VCD) ([2]; Time 3.6): 0.92 | Viable cell densities (VCD) ([2]; Time 3.7): 0.34 | Viable cell densities (VCD) ([2]; Time 4.7): 0.56 | Viable cell densities (VCD) ([2]; Time 5.8): 0.94 | Viable cell densities (VCD) ([2]; Time 6.7): 1.40 | Viable cell densities (VCD) ([2]; Time 6.8): 0.30 | Viable cell densities (VCD) ([2]; Time 7.8): 0.45 | Viable cell densities (VCD) ([2]; Time 8.7): 0.79 | Viable cell densities (VCD) ([2]; Time 9.7): 1.24 | Viable cell densities (VCD) ([2]; Time 10.6): 1.81 | Viable cell densities (VCD) ([2]; Time 11.6): 2.38 | Viable cell densities (VCD) ([2]; Time 12.8): 3.12 | Viable cell densities (VCD) ([2]; Time 13.6): 3.66 | Viable cell densities (VCD) ([2]; Time 15.0): 4.52 | Viable cell densities (VCD) ([2]; Time 15.9): 5.47 | Viable cell densities (VCD) ([2]; Time 16.7): 6.10 | Viable cell densities (VCD) ([2]; Time 17.8): 6.03 | Viable cell densities (VCD) ([2]; Time 18.7): 7.23 | Viable cell densities (VCD) ([2]; Time 19.9): 10.51 | Viable cell densities (VCD) ([2]; Time 20.7): 12.43 | Viable cell densities (VCD) ([2]; Time 21.8): 12.15 | Viable cell densities (VCD) ([2]; Time 22.8): 11.82
